This assay relates to BALB/cJ, DBA/2J, C57BL/6J, and 129SvEv mice. Description: Open field test, strain comparison. It counts as in vivo, mouse. As to conditions: for center measures: chronic fluoxetine 5 or 10 mg/kg/day. The protocol:
For the strain comparison study, 36 male mice of four strains (BALB/cJ, DBA/2J, C57BL/6J, 129SvEv) were subjects for a total of 144 mice. Mice were tested in the OF beginning on day 30 or 33 of chronic fluoxetine treatment. Mice were tested for 15 min on three consecutive days to maximize activity levels. Mice were then tested in the modified FST on day 36 or 37.
Open field test: Motor activity was quantified in four Plexiglas OF boxes 43 x 43 cm (MED Associates, Georgia, Vt.). Two sets of 16 pulse-modulated infrared photobeams were placed on opposite walls 2.5-cm apart to record x-y ambulatory movements. Activity chambers were computer interfaced for data sampling at 100-ms resolution. The computer defined grid lines that divided each OF into center and surround regions, with each of four lines being 11 cm from each wall. Dependent measures were the number of entries into the center, the distance traveled in the center, total time spent in the center, and distance traveled in the center divided by total distance traveled. Overall motor activity was quantified as the total distance traveled (cm).
Open field test: For Experiment 1, two-factor ANOVAs with fluoxetine as a between-subject factor and day as a within-subject factor were applied to five measures for each strain: time spent in the center, distance traveled in the center, center distance/total distance traveled, entries into the center, and total distance traveled. Main effects of fluoxetine or significant interactions of fluoxetine and day were resolved using post-hoc ANOVAs with adjusted p-values and/or Newman-Keuls post-hoc tests. Subchronic and chronic experiments in Balb/cJ mice were analyzed using one-way ANOVAs with fluoxetine as a between-subjects factor and Newman-Keuls post-hoc tests for the same variables. Because data deviated substantially from a normal distribution due to low activity levels of Balb/cJ mice, analyses were applied to log transformed data.
Remaining significant effects of fluoxetine indicate independence between measures of locomotor activity and center measures.

The mark [1] stands for this setting: 129SvEv mice, chronic 5 and 10 mg/kg/day, day 1, relative to controls.

Consider `CNCCC(Oc1ccc(C(F)(F)F)cc1)c1ccccc1` (centres unmarked) [fluoxetine], for which the locomotor activity result runs as follows: (129SvEv mice, chronic 10 mg/kg/day, relative to both other doses on day 1 and to 5 mg/kg/day on day 3) “reduced locomotor activity”; (BALB/cJ mice, chronic fluoxetine 5 or 10 mg/kg/day in drinking water, three consecutive days) “no changes in locomotor activity”; (C57BL/6J mice, chronic 10 mg/kg/day, relative to controls) “reduced locomotor activity overall”; (DBA/2J mice, chronic fluoxetine (10 mg/kg/day vs controls on day 3)) “trend towards increased locomotor activity”. Further, under “129SvEv mice, chronic 5 and 10 mg/kg/day”, the “time in the center” value was “reduced time in the center relative to control”. Further, the center entries result under setting [1] is “reduced”. Besides, the “distance traveled in the center” value under setting [1] is on record as “reduced the distance traveled in the center”. The center measures result is, setting by setting: (BALB/cJ mice) “produced no changes”; (DBA/2J mice) “produced no changes”. Also, under “C57BL/6J mice, chronic 5 and 10 mg/kg/day, relative to control”, the “entries into the center” value was “overall reduction in the number of entries into the center”. Also, under “any of the four strains, chronic fluoxetine”, the center/total distance traveled entry is reported as “no effects”.

The values are drawn from US20050186137A1, “Novelty-induced hypophagia-based assays for identifying agents to treat anxiety and depression” (priority 2003, published 2005).
